Experimental data taken from PubChem BioAssay AID2202554 (NIEHS Division of Translational Toxicology (DTT)).
Inconclusive results are not listed. Activity calls are given as the source filed them. How the calls were made is not given here.

System: S. typhimurium/E. coli reverse mutation, colony counts
Test: Bacterial reverse mutation test (aka Ames test) summary data;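 further: His-minus Salmonella and trp-minus E. coli WP2 uvrA pKM101 with or without liver S9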
From the text: The Ames test uses bacteria cultures to determine whether a substance causes mutations. Because there is a significant overlap between substances that are mutagens and those that are carcinogens, a quick and inexpensive mutagenicity test is useful as an initial screening for possible carcinogens.
The Ames test relies on specific strains of S. typhimurium, namely: TA97, TA98, TA100, TA102, TA104, TA1535, TA1537, and TA1538. In addition to the S. typhimurium strains, the test may also use the E. coli strain WP2 uvrA pKM101.
Each of the bacterial strains has a mutation that prevents it from making an amino acid (a protein building block) required for normal cell growth. The S. typhimurium strains are unable to manufacture histidine; the E. coli strain cannot manufacture tryptophan. The tester strains will not be able to grow without amino acid supplementation, unless the mutated gene is changed back to the correct DNA sequence (reversion mutation). Being exposed to a mutagenic chemical increases the chance that the mutant gene will be restored to the correct sequence, which allows the bacteria to grow and form colonies. Each substance under study is tested in a variety of bacterial strains with different types of altered DNA sequences in order to provide a comprehensive assessment of the mutagenic potential of the substance.
Some non-mutagenic substances are converted to mutagenic substances when metabolized by the liver; in contrast, some substances that are mutagenic in their natural state are converted to non-mutagens by the liver. All substances are tested in their natural state, as well as in the presence of liver enzymes that can produce this metabolic conversion of the test substance. Extracts of rat, hamster, or mouse liver enzymes (S9 mix) are used for this purpose.
D. Preparing the Cultures
Multiple sets of cultures are prepared using a range of doses and different amounts of liver enzymes for each bacterial strain. Each culture is prepared in a test tube containing a suspension of one bacterial strain and either an S9 mix or plain buffer solution. Then the test substance is added. Negative control cultures are established using the same ingredients, but without the test substance. Positive control cultures are established using known mutagens active in particular bacterial strains and metabolic conditions (for example, with or without S9). Once prepared, each culture is incubated for 20 minutes at 37° C. Agar is then added to the cultures, and the contents of each tube are poured onto the surface of a Petri dish that was prepared with standard bacterial culture medium. The plates are then incubated, usually for two days.
Depending on the substance to be tested, the exposure and incubation processes may be modified. These variations include:
- Elimination of the 20-minute incubation period in a test tube prior to plating (this method is referred to as the standard plate incorporation method)
- Enzymatic reduction of azo and diazo substances (this process occurs in the intestine or liver of animals) using a chemical called flavin mononucleotide (FMN) or intestinal bacterial preparations from rats
- Testing in sealed chambers such as desiccators for volatile and gaseous chemicals.
To validate the test, a trained investigator compares the number of colonies on the chemical-treated plates to the number of colonies on the negative control plates. If the substance under test is mutagenic, the chemical-treated plates will have a much greater number of colonies than the negative control plates.
- A positive response is a reproducible, dose-related increase in mutant colonies in any single strain, with or without the addition of S9 metabolic enzymes. While there is no minimum percentage of increase required for a result to be considered positive, a twofold increase in mutant colonies in a treated plate is usually considered to be a positive (mutagenic) response.
[…]

| SMILES | outcome |
| --- | --- |
| CN(C)c1ccc(C(=C2C=CC(=[N+](C)C)C=C2)c2ccccc2)cc1 | inactive; negative |
| O=C([O-])c1ccccn1.O=C([O-])c1ccccn1.O=C([O-])c1ccccn1.[Cr+3] | inactive; negative |
| O=C1CSC(=S)N1 | inactive; negative |
| O=Nc1ccc(Nc2ccccc2)cc1 | active; weakly positive |
| CN(C)C=O | inactive; negative |
| CCCCCc1cc(O)c2c(c1)OC(C)(C)[C@@H]1CCC(C)=C[C@@H]21 | inactive; negative |
| C[Si](C)(C)Cl | active; weakly positive |
| Cc1c(N)cccc1Cl | inactive; negative |
| C=CC(C)(O)CCC=C(C)C (centres undefined) | inactive; negative |
| CCCCC(C=O)CC (centres undefined) | inactive; negative |
| O=[N+]([O-])c1ccc(Cl)cc1 | active; positive |
| Cc1ccc(N)c(N)c1 | active; positive |
| CCCC(C)=O | inactive; negative |
| S=c1[nH][nH]c(=S)s1 | inactive; negative |
| Clc1cc(Cl)c(Cl)c(Cl)c1 | inactive; negative |
| CC(C)=CCl | active; positive |
| CCCCCCCCCCCCCCCCCC(O)=[OH+].O.[Cl][Cr][Cl].[Cl][Cr][Cl] | active; positive |
| COC(=O)CCCCC(=O)OC | inactive; negative |
| C=CCCl | active; positive |
| CCCCCCCCCCCCCl | inactive; negative |
| CCN(CC)C(=S)S[Te](SC(=S)N(CC)CC)(SC(=S)N(CC)CC)SC(=S)N(CC)CC | inactive; negative |
| CC(=O)C=Cc1ccccc1 | active; positive |
| Oc1ccc(Cl)c(Cl)c1Cl | inactive; negative |
| CCCCC(CC)COCCC#N (centres undefined) | inactive; negative |
| O=S(O)c1ccc(Cl)cc1 | inactive; negative |
| C[N+](C)(C)Cc1ccccc1 | inactive; negative |

| SMILES | outcome |
| --- | --- |
| CC1CO1 (centres undefined) | active; positive |
| O=P1(N(CCCl)CCCl)NCCCO1 (centres undefined) | active; positive |
| NCc1ccc(CN)cc1 | inactive; negative |
| CCCCC(CC)COP(=O)(OCC(CC)CCCC)OCC(CC)CCCC (centres undefined) | inactive; negative |
| Cc1ccc(N)c(C)c1 | active; positive |
| Oc1ccccc1O | inactive; negative |
| CCN1CCOCC1 | active; weakly positive |
| COc1cc(S(=O)(=O)O)c(C)cc1N=Nc1c(O)ccc2cc(S(=O)(=O)O)ccc12 | inactive; negative |
| CCCCC(CC)COCCCN (centres undefined) | inactive; negative |
| CC1(C)S[C@@H]2[C@H](NC(=O)[C@H](N)c3ccccc3)C(=O)N2[C@H]1C(=O)O | inactive; negative |
| c1ccc2c(c1)ccc1cc3c(ccc4ccccc43)cc12 | active; positive |
| CC(=O)OC(C)=O | inactive; negative |
| C[C@]12C=CC(=O)C=C1CC[C@@H]1[C@@H]2C(=O)C[C@@]2(C)[C@H]1CC[C@]2(O)C(=O)CO | active; positive |
| CC(N)=O | inactive; negative |
| c1ccccc1 | inactive; negative |
| OCCCCO | inactive; negative |
| CCOC(=O)OCC | inactive; negative |
| OCCOc1ccccc1 | inactive; negative |
| Cc1cc(-c2cc(C)c(N)c(C)c2)cc(C)c1N | inactive; negative |
| CN(C)C(=O)Nc1cccc(C(F)(F)F)c1 | inactive; negative |
| C1COCOC1 | active; weakly positive |
| O=C(NCNC(=O)NC1C(=O)NC(=O)N1CO)NC1C(=O)NC(=O)N1CO (centres undefined) | active; positive |
| COc1cc(-c2ccc(N=Nc3cc(S(=O)(=O)O)c4ccccc4c3O)c(OC)c2)ccc1N=Nc1cc(S(=O)(=O)O)c2ccccc2c1N | inactive; negative |
| CC(=O)NNC(=O)c1ccccn1 | inactive; negative |
| Clc1cccc(Cl)c1 | inactive; negative |
| CCCCO | inactive; negative |

| SMILES | outcome |
| --- | --- |
| N#CCc1ccccc1[N+](=O)[O-] | active; positive |
| c1ccc2cc3c(cc2c1)-c1cccc2cccc-3c12 | active; positive |
| C=CCOC(=O)CCCCCCCC | inactive; negative |
| CC(=O)Oc1ccccc1C(=O)O | inactive; negative |
| O=C(OCC1CO1)C1CCCCC1C(=O)OCC1CO1 (centres undefined) | active; positive |
| CC(C)(C)OOC(=O)c1ccccc1 | active; positive |
| NCCO | inactive; negative |
| ClC(Cl)(Cl)c1ccccc1 | active; positive |
| C[C@H](Cn1cnc2c(N)ncnc21)OCP(=O)(O)O | active; positive |
| NC(=O)/C(=C\c1ccc([N+](=O)[O-])o1)c1ccco1 | active; positive |
| Cc1ccc([N+](=O)[O-])c(C)c1 | active; positive |
| O=C1C=C(O)c2ccccc2C1=O | active; positive |
| Cc1ccc(N=Nc2c(O)ccc3ccccc23)c([N+](=O)[O-])c1 | active; positive |
| CC(=O)O | inactive; negative |
| Clc1c(Cl)c(Cl)c2c(Cl)c(Cl)c(Cl)c(Cl)c2c1Cl | inactive; negative |
| OCCN1CC1 | active; positive |
| COC[CH2][Hg+] | inactive; negative |
| COc1cc(-c2ccc(N=Nc3ccc4c(S(=O)(=O)O)cc(S(=O)(=O)O)c(N)c4c3O)c(OC)c2)ccc1N=Nc1ccc2c(S(=O)(=O)O)cc(S(=O)(=O)O)c(N)c2c1O | active; positive |
| CC[Si](Cl)(Cl)CC | inactive; negative |
| O=C(OCC(COC(=O)c1ccccc1)(COC(=O)c1ccccc1)COC(=O)c1ccccc1)c1ccccc1 | inactive; negative |
| COc1ccc([N+](=O)[O-])cc1N=Nc1c(O)c(C(=O)Nc2cccc([N+](=O)[O-])c2)cc2ccccc12 | active; positive |
| O=c1[nH]c(=O)[nH]c(=O)[nH]1 | inactive; negative |
| c1ccoc1 | active; weakly positive |
| Cc1ccc(O)c(C)c1 | active; weakly positive |
| C[n+]1cccc(C(=O)[O-])c1 | inactive; negative |
| Cc1coc2c1CCC(C)C2 (centres undefined) | inactive; negative |

| SMILES | outcome |
| --- | --- |
| CC(=O)OCC(COC(C)=O)OC(C)=O | inactive; negative |
| Nc1cc(Cl)c(N)c(Cl)c1 | active; positive |
| Oc1cccc2cc3cccc(O)c3c(O)c12 | inactive; negative |
| CCc1c(Br)c(Br)c(Br)c(Br)c1Br | inactive; negative |
| C=CCOC(=O)COCCC(C)C | inactive; negative |
| CC(N)C(=O)O (centres undefined) | inactive; negative |
| NCCCN | inactive; negative |
| Nc1nc(N)nc(N)n1 | inactive; negative |
| CC1=NN(c2ccccc2)C(=O)C1 | inactive; negative |
| BrCC1CO1 (centres undefined) | active; positive |
| Nc1cccc(N)c1 | active; positive |
| Cc1cccc(C(=O)O)c1 | inactive; negative |
| Cc1cccc(O)c1 | inactive; negative |
| Cc1cc(-c2ccc(N=Nc3ccc4c(S(=O)(=O)O)cc(S(=O)(=O)O)c(N)c4c3O)c(C)c2)ccc1N=Nc1ccc2c(S(=O)(=O)O)cc(S(=O)(=O)O)c(N)c2c1O | active; positive |
| OCC(Br)=C(Br)CO | active; positive |
| Nc1cc([N+](=O)[O-])cc(S(=O)(=O)O)c1O | inactive; negative |
| Oc1cc(Cl)ccc1Cl | inactive; negative |
| CCCCOC(=O)c1ccccc1C(=O)OCCCC | inactive; negative |
| C=CC(=O)NC(C)(C)CC(C)=O | inactive; negative |
| Brc1cccc(-c2ccccc2)c1 | inactive; negative |
| O=C(O)C(Cl)(Br)Br | active; positive |
| Cc1ccc(C)o1 | inactive; negative |
| CC(C)OC(=O)Cc1ccccc1 | inactive; negative |
| CCCCCC | inactive; negative |
| CCN(CC)CCNc1ccc(CO)c2sc3ccccc3c(=O)c12 | active; positive |
| O=C1O[C@H]([C@@H](O)CO)C(O)=C1O | active; weakly positive |
